Reference: US20230270753A1, “COMBINATIONS OF GABAA ALPHA 5 AGONISTS AND SV2A INHIBITORS AND METHODS OF USING IN THE TREATMENT OF COGNITIVE IMPAIRMENT” (AGENEBIO, INC., priority 2020, published 2023)
Like-named read-outs stand apart in the source and are kept apart here.

How the values were obtained:
Assay type in all cases: in vivo, rat
aged-impaired rats [1] = assay: Water maze, acute and chronic Compound 1 (Example 7); settings: Compound 1 10 mg/kg IP
Text: Rats were trained and tested in a novel water maze environment to assess the effect of the treatments. The water maze used here was housed in a different room and was surrounded by curtains with a novel set of patterns relative to the maze used for initial assessment of cognitive status. The training and testing protocol used was identical to the spatial learning-activated protocol described in Haberman et al., (2008, Proceedings of the National Academy of Sciences USA, 105, 10601-10606). The task required rats to swim to a […] escape platform at a fixed location in the presence of spatial cues for 8 training trials with an inter-trial interval of 8 min. An hour after the last training trial, rats were given a probe test in the absence of the escape platform (free swim) to assess the memory of the platform location as measured by time spent searching at the target location.
To assess the acute and chronic effects of Compound 1 treatment, rats received 15-16 days of drug injections with assessment on the water maze on the first day (acute effect) and last day (chronic effect) of treatment. Different surrounding spatial cues and escape location in the water maze were used for the initial and subsequent assessments. Compound 1 was given at 10 mg/kg using intraperitoneal injection (IP) at a volume of 1 ml/kg. […]

aged-impaired rats [2] = tested on: aged-impaired rats
aged-impaired rats [3] = assay: Radial arm maze, 5-hr delay, acute Compound 1 via PO (Example 7); settings: Compound 1 10 mg/kg PO 30-40 min before information trial
Text: All rats were screened in a standardized assessment of spatial cognition before the commencement of drug studies. The background assessment used a well-established Morris water maze protocol as described in detail elsewhere (Gallagher et al, 1993). Briefly, the rats were trained for 8 days (three trials per day) to locate a camouflaged escape platform that remained at the same location throughout training in a water maze. Every sixth trial consisted of a probe trial (free swim with no escape platform) that served to assess the development of a spatially localized search for the escape platform. During these probe trials, a learning index was generated from the proximity of the rat to the escape platform and was used to define impairment in the aged rats. The learning index is the sum of weighted proximity scores obtained during probe trials, with low scores reflecting a search near the escape platform and high scores reflecting searches farther away from the platform (Gallagher et al, 1993). Cue training (visible escape platform) occurred on the last day of training to test for sensorimotor and motivational factors independent of spatial learning. Aged rats with impaired spatial memory performance (i.e., those with learning index scores outside the young ‘normative’ range) but successful cued training performance were used for the studies as described below. […]

Compound: COCc1nnc2n1Cc1c(C#Cc3cnc(OC)s3)ncn1-c1ccc(Cl)cc1-2 [Compound 1]
- time spent in the target quadrant of the Morris Water Maze (aged-impaired rats [1]; acute (first day of treatment)): spent more time in the target quadrant
- time spent in the target quadrant of the Morris Water Maze (aged-impaired rats [1]; chronic (last day of 15-16 days of injections)): spent more time in the target quadrant
- efficacy of Compound 1 on its own in the radial arm maze (aged-impaired rats [2]; Compound 1 2.5 mg/kg IP alone): subtherapeutic
- efficacy of Compound 1 on its own in the radial arm maze (aged-impaired rats [2]; Compound 1 5 mg/kg IP alone): subtherapeutic
- number of errors in the radial arm maze vs vehicle (aged-impaired rats [3]): fewer errors
